Experimental data as given in publication PMC12775434, “Ultra-large virtual screening unveils potent agonists of the neuromodulatory orphan receptor GPR139” (Nature Communications, 2025).
Where “and” joins values, the source holds several entries; their conditions need not be identical. Equal entries are not always repeated. Where two headings read alike, the source gives them in different places. Each block holds one molecule with its values, some of them ahead of it.

What was measured:
Type in all cases: cell-based
GPR139 [1] = biological target: T1, GPR139 (Homo sapiens, UniProt Q6DWJ6); assay: Ca2+ mobilization assay, agonist mode, stable GPR139-CHOk1 cell line; settings: for Emax: normalized to Lundbeck Cmp 1a, read-out: Emax (%) Ca2+
T1 sequence (Q6DWJ6 1-353): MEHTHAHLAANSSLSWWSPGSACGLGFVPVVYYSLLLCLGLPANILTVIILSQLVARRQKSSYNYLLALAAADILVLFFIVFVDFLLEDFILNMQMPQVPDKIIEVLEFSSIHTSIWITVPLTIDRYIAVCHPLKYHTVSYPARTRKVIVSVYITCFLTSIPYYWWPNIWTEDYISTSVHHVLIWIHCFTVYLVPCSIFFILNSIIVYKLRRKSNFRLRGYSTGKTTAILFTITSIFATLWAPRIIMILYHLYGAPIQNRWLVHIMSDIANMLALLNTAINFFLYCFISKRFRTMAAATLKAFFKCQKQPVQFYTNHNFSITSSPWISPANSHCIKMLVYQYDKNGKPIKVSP
How it was run: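 Agonist activity of compounds is assessed in stably transfected CHO-K1 cells using the calcium dye Fluo-4 at 37 °C in HEPES-buffered HBSS (pH 7.4). Efficacy is expressed relative to the reference agonist Lundbeck Cmp 1a, set as 100%.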

GPR139 [2] = biological target: T1, GPR139; assay: Ca2+ mobilization assay, antagonist mode (EC80 800 nM Lundbeck Cmp 1a after 20 min preincubation), GPR139-CHOk1; settings: individual replicates (Supplementary Figure 1)
How it was run: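 Antagonist mode: 800 nM (EC80) reference agonist Lundbeck Cmp 1a added following 20 min pre-incubation with 10 µM compound. GPR139-CHOk1 cells, Fluo-4 dye, probenecid-containing HEPES buffer pH 7.4; intracellular Ca2+ measured at 37 °C (ex 485, em 525 nm).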

[3] = biological target: T2, human muscarinic acetylcholine M1 receptor (M1R) (Homo sapiens, UniProt P11229); assay: Ca2+ mobilization counter-screen in M1R-CHOk1 cells; settings: individual replicates (Supplementary Figure 2);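 further: 10 µM test compound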
T2 sequence (P11229 1-460): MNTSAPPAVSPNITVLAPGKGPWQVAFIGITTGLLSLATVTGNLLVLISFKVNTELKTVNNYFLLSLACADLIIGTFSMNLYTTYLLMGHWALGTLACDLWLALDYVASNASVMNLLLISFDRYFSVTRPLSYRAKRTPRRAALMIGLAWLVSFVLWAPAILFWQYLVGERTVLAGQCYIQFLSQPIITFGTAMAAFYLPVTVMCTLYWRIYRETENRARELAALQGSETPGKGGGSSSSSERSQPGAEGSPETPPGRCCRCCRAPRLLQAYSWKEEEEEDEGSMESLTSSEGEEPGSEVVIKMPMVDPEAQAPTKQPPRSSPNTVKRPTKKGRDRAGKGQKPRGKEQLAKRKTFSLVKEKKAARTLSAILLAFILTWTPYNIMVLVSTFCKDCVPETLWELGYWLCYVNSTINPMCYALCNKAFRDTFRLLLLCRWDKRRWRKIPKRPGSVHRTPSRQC
How it was run: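 Counter-screen used CHO-K1 cells stably carrying human M1R, Fluo-4 AM-loaded (2 µM, 1 h, 37 °C). Calcium signal measured at 485/525 nm after compound addition.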

[4] = 0.1 µM, individual replicates (Supplementary Figure 3)
[5] = 1 µM, individual replicates (Supplementary Figure 3)
[6] = 10 µM, individual replicates (Supplementary Figure 3)
[7] = Agonist mode, individual replicates (Supplementary Figure 1)
[8] = Supplementary Table 2, mean ± SEM
[9] = log [Compound] M -4.5, replicate experiments
[10] = log [Compound] M -5.0, replicate experiments
[11] = log [Compound] M -5.5, replicate experiments
[12] = log [Compound] M -6.0, replicate experiments
[13] = log [Compound] M -6.5, replicate experiments
[14] = log [Compound] M -7.0, replicate experiments
[15] = log [Compound] M -7.5, replicate experiments
[16] = log [Compound] M -8.0, replicate experiments
[17] = log [Compound] M -8.5, replicate experiments
[18] = log [Compound] M -9.0, replicate experiments
[19] = primary screen, 10 µM compound, agonist mode, three columns = independent experiments
[20] = Supplementary Table 2, mean ± SEM, read-out: pEC50 Ca2+ (converted)

Ca2+ signal (% of Cmp 1a) (GPR139 [1]; [4]): 18.1 % of Cmp 1a and 15.9 % of Cmp 1a
Ca2+ signal (% of Cmp 1a) (GPR139 [1]; [5]): 65.0 % of Cmp 1a and 52.8 % of Cmp 1a
Ca2+ signal (% of Cmp 1a) (GPR139 [1]; [6]): 86.8 % of Cmp 1a and 54.5 % of Cmp 1a
EC50 (GPR139 [1]; GPR139-CHOk1, read-out: EC50, Ca2+ mobilization): 0.32 µM
Emax (GPR139 [1]; [8]): 83 ± 6%
Compound: COC(=O)c1cc(NC(=O)NC(C)c2cccc(F)c2F)ccc1C (stereo not drawn) [Compound 2, COC(=O)C=1C=C(NC(=O)NC(C)C=2C=CC=C(F)C2F)C=CC1C]
Ca2+ signal (% of Cmp 1a) (GPR139 [1]; [7]): 81 % of Cmp 1a and 65 % of Cmp 1a and 84 % of Cmp 1a
Ca2+ signal (% of Cmp 1a) (GPR139 [1]; [9]): 74 % of Cmp 1a and 103 % of Cmp 1a and 90 % of Cmp 1a
Ca2+ signal (% of Cmp 1a) (GPR139 [1]; [10]): 60 % of Cmp 1a and 92 % of Cmp 1a and 78 % of Cmp 1a
Ca2+ signal (% of Cmp 1a) (GPR139 [1]; [11]): 65 % of Cmp 1a and 88 % of Cmp 1a and 71 % of Cmp 1a
Ca2+ signal (% of Cmp 1a) (GPR139 [1]; [12]): 66 % of Cmp 1a and 74 % of Cmp 1a and 68 % of Cmp 1a
Ca2+ signal (% of Cmp 1a) (GPR139 [1]; [13]): 25 % of Cmp 1a and 58 % of Cmp 1a and 38 % of Cmp 1a
Ca2+ signal (% of Cmp 1a) (GPR139 [1]; [14]): 16 % of Cmp 1a and 20 % of Cmp 1a and 28 % of Cmp 1a
Ca2+ signal (% of Cmp 1a) (GPR139 [1]; [15]): -9 % of Cmp 1a and -8 % of Cmp 1a and 6 % of Cmp 1a
Ca2+ signal (% of Cmp 1a) (GPR139 [1]; [16]): -12 % of Cmp 1a and -7 % of Cmp 1a and 2.84 % of Cmp 1a
Ca2+ signal (% of Cmp 1a) (GPR139 [1]; [17]): -1.88 % of Cmp 1a and 9 % of Cmp 1a and 21 % of Cmp 1a
Ca2+ signal (% of Cmp 1a) (GPR139 [1]; [18]): -14 % of Cmp 1a and 6 % of Cmp 1a and 7 % of Cmp 1a
Ca2+ signal (% of Cmp 1a) (GPR139 [1]; [19]): 81 % of Cmp 1a and 65 % of Cmp 1a and 84 % of Cmp 1a
Ca2+ signal (% of Cmp 1a) (GPR139 [2]): 21.0785 % of Cmp 1a and 18.2142 % of Cmp 1a and 25.1866 % of Cmp 1a
Ca2+ signal (% of Carbachol) [3]: -10 % of Carbachol and 1.81 % of Carbachol

Ca2+ signal (% of Cmp 1a) (GPR139 [1]; [4]): 5.3 % of Cmp 1a and 10.2 % of Cmp 1a
Ca2+ signal (% of Cmp 1a) (GPR139 [1]; [5]): 18.7 % of Cmp 1a and 1.8 % of Cmp 1a
Ca2+ signal (% of Cmp 1a) (GPR139 [1]; [6]): 46.3 % of Cmp 1a
EC50 (GPR139 [1]; [20]): 2.51 µM
Emax (GPR139 [1]; [8]): 70 ± 3%
Compound: Cc1noc(C(C)NC(=O)Nc2cccc(-c3ccccc3)c2)n1 (stereo not drawn) [Compound 3, CC(NC(=O)NC=1C=CC=C(C1)C=2C=CC=CC2)C3=NC(C)=NO3]
Ca2+ signal (% of Cmp 1a) (GPR139 [1]; [7]): 55 % of Cmp 1a and 56 % of Cmp 1a and 62 % of Cmp 1a
Ca2+ signal (% of Cmp 1a) (GPR139 [1]; [9]): 57 % of Cmp 1a and 72 % of Cmp 1a and 70 % of Cmp 1a
Ca2+ signal (% of Cmp 1a) (GPR139 [1]; [10]): 55 % of Cmp 1a and 59 % of Cmp 1a and 65 % of Cmp 1a
Ca2+ signal (% of Cmp 1a) (GPR139 [1]; [11]): 25 % of Cmp 1a and 54 % of Cmp 1a and 37 % of Cmp 1a
Ca2+ signal (% of Cmp 1a) (GPR139 [1]; [12]): 11 % of Cmp 1a and 34 % of Cmp 1a and 21 % of Cmp 1a
Ca2+ signal (% of Cmp 1a) (GPR139 [1]; [13]): -1.52 % of Cmp 1a and 4.42 % of Cmp 1a and 16 % of Cmp 1a
Ca2+ signal (% of Cmp 1a) (GPR139 [1]; [14]): -7 % of Cmp 1a and -0.413 % of Cmp 1a and 6 % of Cmp 1a
Ca2+ signal (% of Cmp 1a) (GPR139 [1]; [15]): -4.33 % of Cmp 1a and 4 % of Cmp 1a and 8 % of Cmp 1a
Ca2+ signal (% of Cmp 1a) (GPR139 [1]; [16]): -1.83 % of Cmp 1a and -3.24 % of Cmp 1a and 5 % of Cmp 1a
Ca2+ signal (% of Cmp 1a) (GPR139 [1]; [17]): -10 % of Cmp 1a and -2 % of Cmp 1a and 4.52 % of Cmp 1a
Ca2+ signal (% of Cmp 1a) (GPR139 [1]; [18]): 0.621 % of Cmp 1a and -0.857 % of Cmp 1a and 2.53 % of Cmp 1a
Ca2+ signal (% of Cmp 1a) (GPR139 [1]; [19]): 55 % of Cmp 1a and 56 % of Cmp 1a and 62 % of Cmp 1a
Ca2+ signal (% of Cmp 1a) (GPR139 [2]): 29.8327 % of Cmp 1a and 24.7661 % of Cmp 1a and 29.9717 % of Cmp 1a
Ca2+ signal (% of Carbachol) [3]: -13 % of Carbachol and -10 % of Carbachol

Compound: Cc1noc(CNC(=O)C2(C)CCCCN2C(=O)c2ccccc2)n1 (stereo not drawn) [Compound 4, CC1=NOC(CNC(=O)C2(C)CCCCN2C(=O)C=3C=CC=CC3)=N1]
Ca2+ signal (% of Cmp 1a) (GPR139 [1]; [4]): -4.2 % of Cmp 1a and 0.43 % of Cmp 1a
Ca2+ signal (% of Cmp 1a) (GPR139 [1]; [5]): 9.8 % of Cmp 1a and 4.1 % of Cmp 1a
Ca2+ signal (% of Cmp 1a) (GPR139 [1]; [6]): 51.3 % of Cmp 1a and 47.8 % of Cmp 1a
Ca2+ signal (% of Cmp 1a) (GPR139 [1]; [7]): 75 % of Cmp 1a and 80 % of Cmp 1a and 81 % of Cmp 1a
EC50 (GPR139 [1]; [20]): 3.98 µM
Emax (GPR139 [1]; [8]): 100 ± 7%
Ca2+ signal (% of Cmp 1a) (GPR139 [1]; [9]): 98 % of Cmp 1a and 82 % of Cmp 1a
Ca2+ signal (% of Cmp 1a) (GPR139 [1]; [10]): 75 % of Cmp 1a and 63 % of Cmp 1a
Ca2+ signal (% of Cmp 1a) (GPR139 [1]; [11]): 44 % of Cmp 1a and 46 % of Cmp 1a
Ca2+ signal (% of Cmp 1a) (GPR139 [1]; [12]): 13 % of Cmp 1a and 24 % of Cmp 1a
Ca2+ signal (% of Cmp 1a) (GPR139 [1]; [13]): 4.41 % of Cmp 1a and 3 % of Cmp 1a
Ca2+ signal (% of Cmp 1a) (GPR139 [1]; [14]): 3.62 % of Cmp 1a and -1.16 % of Cmp 1a
Ca2+ signal (% of Cmp 1a) (GPR139 [1]; [15]): -4.26 % of Cmp 1a and -2.55 % of Cmp 1a
Ca2+ signal (% of Cmp 1a) (GPR139 [1]; [16]): -0.711 % of Cmp 1a and -3.49 % of Cmp 1a
Ca2+ signal (% of Cmp 1a) (GPR139 [1]; [17]): 5.56 % of Cmp 1a and 4.65 % of Cmp 1a
Ca2+ signal (% of Cmp 1a) (GPR139 [1]; [18]): -1.86 % of Cmp 1a and -5 % of Cmp 1a
Ca2+ signal (% of Cmp 1a) (GPR139 [1]; [19]): 75 % of Cmp 1a and 80 % of Cmp 1a and 81 % of Cmp 1a
Ca2+ signal (% of Cmp 1a) (GPR139 [2]): 35.6047 % of Cmp 1a and 34.6013 % of Cmp 1a and 39.6569 % of Cmp 1a
Ca2+ signal (% of Carbachol) [3]: -17 % of Carbachol and -15 % of Carbachol
